{
  "source": "patent US20050049299A1",
  "about": "“Selective inhibitors of stat-3 activation and uses thereof” (priority 2003, published 2005)",
  "assay_type_in_all_cases": "cell-based, human",
  "key": {"[1]": {"system": "STAT3 phosphorylation", "test": "IL-6-inducible STAT3 phosphorylation in RPMI 8226 cells (Western blot)", "experimental": "FIGS. 3A-C show& that IL-6 induces STAT3 phosphorylation in human multiple myeloma RPMI 8226 cells and curcumin inhibits it. […] U266, RPMI 8226, MM.1S, MM.1R and OCl cells (2×10^6) were lysed, and 30 μg of whole-cell extracts were resolved on 7.5% SDS-PAGE, electrotransferred to a nitrocellulose membrane, and probed for phosphorylated-STAT3 (upper panel) and STAT3 (lower panel). […] Thirty micrograms of whole cell extracts were resolved on 7.5% SDS-PAGE, electrotransferred to a nitrocellulose membrane, and probed for the phosphorylated-STAT3 (upper panel) and stripped and reprobed for STAT3 (middle panel) and β-actin (lower panel).\nFor detection of STAT proteins, whole-cell extracts were prepared by lysing the curcumin-treated cells in lysis buffer (20 mM Tris, pH 7.4, 250 mM NaCl, 2 mM EDTA, pH 8.0, 0.1% Triton-X100, 0.01 mg/ml aprotinin, 0.005 mg/ml leupeptin, 0.4 mM PMSF, and 4 mM NaVO4). Lysates were then spun at 14000 rpm for 10 min to remove insoluble material, and resolved on a 7.5% gel. After electrophoresis, the proteins were electrotransferred to a nitrocellulose membrane, blocked with 5% nonfat milk, and probed with anti-STAT antibodies (1:1000) overnight at 4° C. The blot was washed, exposed to HRP-conjugated secondary antibodies for 1 h, and finally examined by chemiluminescence (ECL, Amersham Pharmacia Biotech. Arlington Heights, Ill.).\nSince IL-6 is a growth factor for multiple myeloma and induces STAT3 phosphorylation (5, 6, 15), whether curcumin could inhibit IL-6-induced STAT3 phosphorylation was examined. […] IL-6 induced phosphorylation of STAT3 as early as 5 min and began to decline at 60 minutes (FIG. 3B). RPMI 8226 cells were then incubated with curcumin for different times and examined for IL-6-inducible STAT3 phosphorylation.\nExposure of cells to curcumin for 4 hours was sufficient to completely suppress IL-6-induced STAT3 phosphorylation. Curcumin alone had no effect on STAT3 phosphorylation in these cells (data not shown)."}, "[2]": {"system": "MM.1 cells", "test": "IL-6-induced proliferation of MM.1 cells", "details": "curcumin 10 μM, 48 h, serum-free", "experimental": "(§1) FIGS. 7A-B show& that IL-6 induces proliferation of human multiple myeloma cells and curcumin inhibits it. […] Cell proliferation assays were performed as described below. Results are shown as mean (±s.d.) of percent [^3H] thymidine incorporation or percent proliferation by MTT of triplicate cultures compared to the untreated control.\n(§2) The antiproliferative effects of curcumin against different multiple myeloma cell lines were determined by the MTT dye uptake method as described earlier (28). Briefly, the cells (5000/well) were incubated in triplicate in a 96-well plate in the presence or absence of indicated test samples in a final volume of 0.1 ml for 24 h at 37° C. […] The OD at 570 nm was measured using a 96-well multiscanner autoreader (Dynatech MR 5000), with the extraction buffer serving as blank. Percent cell viability cell viability was calculated using the following formula: Percent cell viability=(OD of the experiment samples/OD of the control)×100.\n(§3) The antiproliferative effects of curcumin were also monitored by the thymidine incorporation method. […] Six hours before the completion of experiment, cells were pulse treated with 0.5 μCi [^3H]thymidine, and the uptake of [^3H]thymidine was monitored using a Matrix-9600 β-counter (Packard Instruments, Downers Grove, Ill.). […]\n(§4) Whether curcumin suppresses the proliferative effects of IL-6 was determined."}, "[3]": {"system": "MM.1R cells", "test": "IL-6-induced proliferation of MM.1R cells", "details": "curcumin 10 μM, 48 h, serum-free", "experimental": "as §1, §2, §3, §4"}, "[4]": {"system": "STAT3 phosphorylation", "test": "Phosphorylated STAT3 in HNSCC cells (immunocytochemistry, horseradish peroxidase stain)", "details": "50 μM, 2 hrs", "experimental": "MDA 1986LN, MDA 686LN and JMAR cells were incubated with either media alone or with curcumin (50 μM) for 2 hrs and then analyzed by immunocytochemistry using Alexa fluorochrome for the distribution of STAT3 (original magnification ×200). […] The same procedure as mentioned above was performed on the same cells and the p-STAT3 analyzed by immunocytochemistry using horse radish peroxidase stain (original magnification ×200).\nTo further confirm that curcumin inhibited STAT3 phosphorylation, the same curcumin-treated and untreated cells were analyzed for phosphorylated STAT3 by immunocytochemistry using horseradish peroxidase stain. […] These findings confirmed that curcumin inhibited STAT3 phosphorylation."}},
  "data": [
    {"smiles": "COc1cc(/C=C/C(=O)CC(=O)/C=C/c2ccc(O)c(OC)c2)ccc1O", "note": "[curcumin, diferuloylmethane]", "values": [
      {"measurement": "exposure sufficient to completely suppress IL-6-induced STAT3 phosphorylation", "setting": "[1]; 50 μM curcumin, IL-6 10 ng/ml 10 min", "result": 4, "unit": "h"},
      {"measurement": "effect of curcumin alone on STAT3 phosphorylation", "setting": "[1]; without IL-6 (data not shown)", "result": "no effect"},
      {"measurement": "IL-6-induced cell proliferation in MM.1 cells", "setting": "[2]", "result": "inhibited IL-6-induced cell proliferation"},
      {"measurement": "IL-6-induced cell proliferation in MM.1R cells", "setting": "[3]", "result": "inhibited IL-6-induced cell proliferation"},
      {"measurement": "phosphorylation of STAT3 (immunocytochemistry)", "setting": "[4]; JMAR cells", "result": "no inhibition of STAT3 phosphorylation was observed"},
      {"measurement": "phosphorylation of STAT3 (immunocytochemistry)", "setting": "[4]; MDA 1986LN and MDA 686LN cells", "result": "inhibited the phosphorylation of STAT3"}
    ]}
  ]
}
